Results reported in patent publication US20080269170A1, “Novel 2,4-Dianilinopyrimidine Derivatives, the Preparation Thereof, Their Use as Medicaments, Pharmaceutical Compositions and, in Particular, as IKK Inhibitors” (sanofi-aventis, priority 2005, published 2008).
Where a name gives a salt, the structure may show the parent alone.

**Q.** With CC(C)(O)CNCCN(C1CCNCC1)S(=O)(=O)c1ccc(Nc2nccc(Nc3ccc(F)cc3)n2)cc1 [Example 102, 4-({4-[(4-Fluorophenyl)amino]pyrimidin-2-yl}amino)-N-{2-[(2-hydroxy-2-methylpropyl)amino]ethyl}-N-piperidin-4-ylbenzenesulfonamide] as the compound, how does the melting point read?
**A.** Its melting point is 120 °C.

**Q.** Which melting point does the source give for CN1CCC(N(CCN2CCCC2)S(=O)(=O)c2ccc(Nc3nccc(Nc4ccc(F)cc4)n3)cc2)CC1 [Example 89, 4-({4-[(4-Fluorophenyl)amino]pyrimidin-2-yl}amino)-N-(1-methylpiperidin-4-yl)-N-(2-pyrrolidin-1-ylethyl)benzenesulfonamide] here?
**A.** The melting point was 250 °C.

**Q.** Which melting point does the source give for Cc1cc(Nc2ccnc(Nc3ccc(S(=O)(=O)N(C)C4CCN(CCS(C)(=O)=O)CC4)cc3)n2)ccc1F [Example 129, 4-({4-[(4-Fluoro-3-methylphenyl)amino]-pyrimidin-2-yl}amino)-N-methyl-N-{1-[2-(methyl-sulfonyl)ethyl]piperidin-4-yl}benzenesulfonamide] here?
**A.** Its melting point is 114.5 °C.

**Q.** Which melting point does the source give for Cc1ncc(CN2CCC(N(C)S(=O)(=O)c3ccc(Nc4nccc(Nc5ccc(F)cc5)n4)cc3)CC2)[nH]1 [Example 30, 4-[4-(4-Fluorophenylamino)pyrimidin-2-ylamino]-N-methyl-N-[1-(2-methyl-3H-imidazol-4-ylmethyl)piperidin-4-yl]benzenesulfonamide] here?
**A.** The melting point was 155 °C.

**Q.** With CN(C1CCN(Cc2cccc(F)c2)CC1)S(=O)(=O)c1ccc(Nc2nccc(Nc3ccc(F)cc3)n2)cc1 [Example 32, N-[1-(3-Fluorobenzyl)piperidin-4-yl]-4-[4-(4-fluorophenylamino)pyrimidin-2-ylamino]-N-methyl-benzenesulfonamide] as the compound, how does the melting point read?
**A.** Its melting point is 207 °C.

**Q.** For CN(C1CCC(O)CC1)S(=O)(=O)c1ccc(Nc2nccc(Nc3ccc(F)cc3)n2)cc1 (centres unmarked) [Example 120, 4-({4-[(4-Fluorophenyl)amino]pyrimidin-2-yl}amino)-N-(4-hydroxycyclohexyl)-N-methylbenzene-sulfonamide], which melting point is on record?
**A.** The melting point was 203 °C.

**Q.** For CN(C1CCN(Cc2ccccc2)CC1)S(=O)(=O)c1ccc(Nc2nccc(Nc3ccc(F)cc3)n2)cc1 [Example 3, N-(1-Benzylpiperidin-4-yl)-4-[4-(4-fluoro-phenylamino)pyrimidin-2-ylamino]-N-methylbenzene-sulfonamide], which melting point is on record?
**A.** The melting point was 186 to 190 °C.

**Q.** For CN(C)C1CCC(N(C)S(=O)(=O)c2ccc(Nc3nccc(Nc4ccc(F)cc4)n3)cc2)CC1 (stereo not drawn) [Example 141, 4-({4-[(4-Fluorophenyl)amino]pyrimidin-2-yl}amino)-N-methyl-N-[4-trans(dimethylamino)cyclo-hexyl]benzenesulfonamide], which melting point is on record?
**A.** Its melting point is 218 °C.

**Q.** With CN(C1CCN(Cc2cc[n+]([O-])cc2)CC1)S(=O)(=O)c1ccc(Nc2nccc(Nc3ccc(F)cc3)n2)cc1 [Example 29, 4-[4-(4-Fluorophenylamino)pyrimidin-2-ylamino]-N-[1-(1-N-oxidepyridin-4-ylmethyl)piperidin-4-yl]-N-methylbenzenesulfonamide] as the compound, how does the melting point read?
**A.** Its melting point is 155 to 156 °C.

**Q.** With Cc1cc(Nc2ccnc(Nc3ccc(S(=O)(=O)N(C)C4CCN(Cc5cncs5)CC4)cc3)n2)ccc1F [Example 132, 4-({4-[(4-Fluoro-3-methylphenyl)amino]-pyrimidin-2-yl}amino)-N-methyl-N-{1-[(1-thiazol-5-yl)-methyl]piperidin-4-yl}benzenesulfonamide] as the compound, how does the melting point read?
**A.** The melting point was 196 to 197 °C.

**Q.** With CN(C1CCS(=O)(=O)C1)S(=O)(=O)c1ccc(Nc2nccc(Nc3ccc(F)cc3)n2)cc1 (centres unmarked) [Example 6, N-(1,1-Dioxotetrahydro-1λ^6-thiophen-3-yl)-4-[4-(4-fluorophenylamino)pyrimidin-2-ylamino]-N-methyl-benzenesulfonamide] as the compound, how does the melting point read?
**A.** The melting point was 236 to 240 °C.

**Q.** For Cc1cc(Nc2ccnc(Nc3ccc(S(=O)(=O)N(CCN4CCCC4)C4CNC4)cc3)n2)ccc1F (as salt: hydrochloride) [Example 97, N-Azetidin-3-yl-4-({4-[(4-fluoro-3-methyl-phenyl)amino]pyrimidin-2-yl}amino)-N-(2-pyrrolidin-1-ylethyl)benzenesulfonamide hydrochloride], which melting point is on record?
**A.** The melting point was 231 to 235 °C.

**Q.** With CCOP(=O)(CCCN1CCC(NS(=O)(=O)c2ccc(Nc3nccc(Nc4ccc(F)cc4)n3)cc2)CC1)OCC as the compound, how does the melting point read?
**A.** The melting point was 110 °C.

**Q.** With Cc1cc(Nc2ccnc(Nc3ccc(S(=O)(=O)N(C)C4CCN(Cc5cn[nH]c5)CC4)cc3)n2)ccc1F [Example 134, 4-({4-[(4-Fluoro-3-methylphenyl)amino]-pyrimidin-2-yl}amino)-N-methyl-N-{1-[(1H-pyrazol-4-yl)methyl]piperidin-4-yl}benzenesulfonamide] as the compound, how does the melting point read?
**A.** The melting point was 224 °C.

**Q.** With CN(C1CCN(CCC(F)(F)F)CC1)S(=O)(=O)c1ccc(Nc2nccc(Nc3ccc(F)cc3)n2)cc1 [Example 107, 4-({4-[(4-Fluorophenyl)amino]pyrimidin-2-yl}amino)-N-methyl-N-[1-(3,3,3-trifluoropropyl)piperidin-4-yl]benzenesulfonamide] as the compound, how does the melting point read?
**A.** Its melting point is 195 to 196 °C.

**Q.** With CCN1CCC(N(C)S(=O)(=O)c2ccc(Nc3nccc(Nc4ccc(F)cc4)n3)cc2)CC1 [Example 10, N-(1-Ethylpiperidin-4-yl)-4-[4-(4-fluoro-phenylamino)pyrimidin-2-ylamino]-N-methylbenzene-sulfonamide] as the compound, how does the melting point read?
**A.** Its melting point is 162 to 163 °C.

**Q.** Which melting point does the source give for CN(C1CCC(=O)CC1)S(=O)(=O)c1ccc(Nc2nccc(Nc3ccc(F)cc3)n2)cc1 [Example 118, 4-({4-[(4-Fluorophenyl)amino]pyrimidin-2-yl}amino)-N-methyl-N-(4-oxocyclohexyl)benzenesulfonamide] here?
**A.** Its melting point is 203 °C.

**Q.** For CCCN(C1CCN(C)CC1)S(=O)(=O)c1ccc(Nc2nccc(Nc3ccc(F)cc3)n2)cc1 [Example 130, 4-({4-[(4-Fluorophenyl)amino]pyrimidin-2-yl}amino)-N-propyl-N-(1-methylpiperidin-4-yl)benzene-sulfonamide], which melting point is on record?
**A.** Its melting point is 232 °C.

**Q.** With CN(C1CCN(C2CC2)CC1)S(=O)(=O)c1ccc(Nc2nccc(Nc3ccc(F)cc3)n2)cc1 [Example 150, N-(1-Cyclopropylpiperidin-4-yl)-4-({4-[(4-fluorophenyl)amino]pyrimidin-2-yl}amino)-N-methyl-benzenesulfonamide] as the compound, how does the melting point read?
**A.** Its melting point is 125 to 128 °C.

**Q.** With CN(C1CCN(CC(F)(F)F)CC1)S(=O)(=O)c1ccc(Nc2nccc(Nc3ccc(F)cc3)n2)cc1 [Example 112, 4-({4-[(4-Fluorophenyl)amino]pyrimidin-2-yl}amino)-N-methyl-N-[1-(2,2,2-trifluoroethyl)piperidin-4-yl]benzenesulfonamide] as the compound, how does the melting point read?
**A.** Its melting point is 201 to 202 °C.

**Q.** Which melting point does the source give for Cc1cc(Nc2ccnc(Nc3ccc(S(=O)(=O)N(C)C4CCNCC4)cc3)n2)ccc1F (as salt: hydrochloride) here?
**A.** Its melting point is 215 to 220 °C.

**Q.** With CN1CCC(N(Cc2cccn2C)S(=O)(=O)c2ccc(Nc3nccc(Nc4ccc(F)cc4)n3)cc2)CC1 [Example 161, 4-({4-[(4-Fluorophenyl)amino]pyrimidin-2-yl}amino)-N-(1-methylpiperidin-4-yl)-N-[(1-methyl-1H-pyrrol-2-yl)methyl]benzenesulfonamide] as the compound, how does the melting point read?
**A.** Its melting point is 129 °C.

**Q.** For NCCN(C1CCOCC1)S(=O)(=O)c1ccc(Nc2nccc(Nc3ccc(F)cc3)n2)cc1 (as salt: hydrochloride), which melting point is on record?
**A.** The melting point was 200 °C.

**Q.** For NCCN(C1CCN(CC(F)(F)F)CC1)S(=O)(=O)c1ccc(Nc2nccc(Nc3ccc(F)cc3)n2)cc1 (as salt: hydrochloride) [Example 100, N-(2-Aminoethyl)-4-({4-[(4-fluorophenyl)-amino]pyrimidin-2-yl}amino)-N-[1-(2,2,2-trifluoro-ethyl)piperidin-4-yl]benzenesulfonamide hydrochloride], which melting point is on record?
**A.** Its melting point is 240 to 245 °C.

**Q.** For CCSCCN1CCC(NS(=O)(=O)c2ccc(Nc3nccc(Nc4ccc(F)cc4)n3)cc2)CC1 [Example 125, N-{1-[2-(Ethylthio)ethyl]piperidin-4-yl}-4-({4-[(4-fluorophenyl)amino]pyrimidin-2-yl}amino)-benzenesulfonamide], which melting point is on record?
**A.** Its melting point is 194 °C.

**Q.** With CCOP(=O)(CCN1CCC(N(CC2CCCN2)S(=O)(=O)c2ccc(Nc3nccc(Nc4ccc(F)cc4)n3)cc2)CC1)OCC (centres unmarked) (as salt: hydrochloride) as the compound, how does the melting point read?
**A.** Its melting point is 185 °C.

**Q.** With CN(C)CCN(C1CCNCC1)S(=O)(=O)c1ccc(Nc2nccc(Nc3ccc(F)cc3)n2)cc1 (as salt: hydrochloride) as the compound, how does the melting point read?
**A.** Its melting point is 220 °C.

**Q.** With CCNCCN(C1CCNCC1)S(=O)(=O)c1ccc(Nc2nccc(Nc3ccc(F)cc3)n2)cc1 (as salt: hydrochloride) as the compound, how does the melting point read?
**A.** The melting point was 250 °C.

**Q.** Which melting point does the source give for CCOP(=O)(CCN1CCC(N(CCN2CCCC2)S(=O)(=O)c2ccc(Nc3nccc(Nc4ccc(F)cc4)n3)cc2)CC1)OCC here?
**A.** The melting point was 85 °C.

**Q.** Which melting point does the source give for Cc1cc(Nc2ccnc(Nc3ccc(S(=O)(=O)N(C)C4CCN(Cc5cc[nH]c5)CC4)cc3)n2)ccc1F [Example 111, 4-({4-[(4-Fluoro-3-methylphenyl)amino]-pyrimidin-2-yl}amino)-N-methyl-N-{1-[(1H-pyrrol-3-yl)-methyl]piperidin-4-yl}benzenesulfonamide] here?
**A.** The melting point was 134 to 139 °C.

**Q.** Which melting point does the source give for C=CCN(C1CCN(C)CC1)S(=O)(=O)c1ccc(Nc2nccc(Nc3ccc(F)cc3)n2)cc1 [Example 128, 4-({4-[(4-Fluorophenyl)amino]pyrimidin-2-yl}amino)-N-allyl-N-(1-methylpiperidin-4-yl)benzene-sulfonamide] here?
**A.** The melting point was 167 °C.

**Q.** With CCN(C1CCN(C)CC1)S(=O)(=O)c1ccc(Nc2nccc(Nc3ccc(F)cc3)n2)cc1 [Example 149, 4-({4-[(4-Fluorophenyl)amino]pyrimidin-2-yl}amino)-N-ethyl-N-(1-methylpiperidin-4-yl)benzene-sulfonamide] as the compound, how does the melting point read?
**A.** The melting point was 154 °C.

**Q.** With CN1CCC(N(C)S(=O)(=O)c2ccc(Nc3nccc(Nc4cc(F)c(F)c(F)c4)n3)cc2)CC1 [Example 162, 4-[4-(3,4,5-Trifluorophenylamino)pyrimidin-2-ylamino]-N-methyl-N-(1-methylpiperidin-4-yl)benzenesulfonamide] as the compound, how does the melting point read?
**A.** Its melting point is 226.9 °C.

**Q.** Which melting point does the source give for Cc1cc(Nc2ccnc(Nc3ccc(S(=O)(=O)N(CCN)C4CCNCC4)cc3)n2)ccc1F [Example 48, N-(2-Aminoethyl)-4-[4-(4-fluoro-3-methyl-phenylamino)pyrimidin-2-ylamino]-N-piperidin-4-yl-benzenesulfonamide] here?
**A.** Its melting point is 242 to 244 °C.

**Q.** With CCOP(=O)(CCN1CCC(N(C)S(=O)(=O)c2ccc(Nc3nccc(Nc4ccc(F)cc4)n3)cc2)CC1)OCC as the compound, how does the melting point read?
**A.** The melting point was 95 to 100 °C.
